Measured values: ChEMBL document CHEMBL1201862, “PubChem BioAssay data set” (2004)
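Method: 48-hour compound exposure of cells in 96-well plates, five concentrations, linear interpolation of endpoints. GI50 is the concentration that inhibits growth by half.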 Active and inactive are the calls of the source. No stated cut-off is given here; in the data, active = GI50 up to about 1.1 µM and inactive = higher.

How the values were obtained:
Experiment in all cases: growth of human tumour cells (NCI), 48 h
SW-620 = test system: SW-620
MOLT-4 = test system: MOLT-4
SK-MEL-5 = test system: SK-MEL-5
Hs-578T = test system: Hs-578T
K562 = test system: K562
IGROV-1 = test system: IGROV-1
CCRF-CEM = test system: CCRF-CEM
OVCAR-3 = test system: OVCAR-3
OVCAR-4 = test system: OVCAR-4
HCT-116 = test system: HCT-116
MDA-N = test system: MDA-N
UACC-257 = test system: UACC-257
T47D = test system: T47D
NCI-H23 = test system: NCI-H23
SK-OV-3 = test system: SK-OV-3
OVCAR-8 = test system: OVCAR-8
TK-10 = test system: TK-10
SK-MEL-2 = test system: SK-MEL-2
BT-549 = test system: BT-549
NCI-H522 = test system: NCI-H522
786-0 = test system: 786-0
MDA-MB-231 = test system: MDA-MB-231
SK-MEL-28 = test system: SK-MEL-28
NCI/ADR-RES = test system: NCI/ADR-RES
KM12 = test system: KM12
OVCAR-5 = test system: OVCAR-5
SNB-19 = test system: SNB-19
RPMI-8226 = test system: RPMI-8226
CAKI-1 = test system: CAKI-1
SF-268 = test system: SF-268
UO-31 = test system: UO-31
MDA-MB-435 = test system: MDA-MB-435
HT-29 = test system: HT-29
A549 = test system: A549
Malme-3M = test system: Malme-3M
EKVX = test system: EKVX
SNB-75 = test system: SNB-75
A498 = test system: A498
COLO 205 = test system: COLO 205
LOX IMVI = test system: LOX IMVI
HCT-15 = test system: HCT-15
PC-3 = test system: PC-3
DU-145 = test system: DU-145
SF-295 = test system: SF-295
U-251 = test system: U-251
HOP-92 = test system: HOP-92
RXF 393 = test system: RXF 393
SN12C = test system: SN12C
HOP-62 = test system: HOP-62
UACC-62 = test system: UACC-62
SR = test system: SR
M14 = test system: M14
ACHN = test system: ACHN
NCI-H460 = test system: NCI-H460
HL-60 = test system: HL-60
SF-539 = test system: SF-539
HCC 2998 = test system: HCC 2998
MCF7 = test system: MCF7
NCI-H226 = test system: NCI-H226

For O=S(=O)(O)c1ccc(/N=N\c2c(O)ccc3cc(Br)ccc23)cc1, the GI50 (SW-620) was > 100 µM (inactive), the GI50 (MOLT-4) was > 100 µM (inactive) and the GI50 (SK-MEL-5) was > 100 µM (inactive). The GI50 (Hs-578T) was > 100 µM (inactive), the GI50 (K562) was > 10 µM (inactive) and the GI50 (IGROV-1) was > 100 µM (inactive). The GI50 (CCRF-CEM) was > 100 µM (inactive), the GI50 (OVCAR-3) was > 100 µM (inactive) and the GI50 (OVCAR-4) was > 100 µM (inactive). The GI50 (HCT-116) was > 100 µM (inactive), the GI50 (MDA-N) was > 100 µM (inactive) and the GI50 (UACC-257) was > 100 µM (inactive). The GI50 (T47D) was > 100 µM (inactive), the GI50 (NCI-H23) was > 100 µM (inactive) and the GI50 (SK-OV-3) was > 100 µM (inactive). For the same molecule, the GI50 (OVCAR-8) was > 100 µM (inactive), the GI50 (TK-10) was > 100 µM (inactive) and the GI50 (SK-MEL-2) was > 100 µM (inactive). The GI50 (BT-549) was > 100 µM (inactive), the GI50 (NCI-H522) was > 100 µM (inactive) and the GI50 (786-0) was > 100 µM (inactive). For the same molecule, the GI50 (MDA-MB-231) was > 100 µM (inactive), the GI50 (SK-MEL-28) was > 100 µM (inactive) and the GI50 (NCI/ADR-RES) was > 100 µM (inactive). The GI50 (KM12) was > 100 µM (inactive), the GI50 (OVCAR-5) was > 100 µM (inactive) and the GI50 (SNB-19) was > 100 µM (inactive). The GI50 (RPMI-8226) was > 100 µM (inactive), the GI50 (CAKI-1) was > 100 µM (inactive) and the GI50 (SF-268) was > 100 µM (inactive). The GI50 (UO-31) was > 100 µM (inactive), the GI50 (MDA-MB-435) was > 100 µM (inactive) and the GI50 (HT-29) was > 100 µM (inactive). For the same molecule, the GI50 (A549) was > 100 µM (inactive), the GI50 (Malme-3M) was > 100 µM (inactive) and the GI50 (EKVX) was > 100 µM (inactive). For the same molecule, the GI50 (SNB-75) was > 100 µM (inactive), the GI50 (A498) was > 100 µM (inactive) and the GI50 (COLO 205) was > 100 µM (inactive). The GI50 (LOX IMVI) was > 100 µM (inactive), the GI50 (HCT-15) was greater than 100 µM and the GI50 (PC-3) was > 100 µM (inactive). For the same molecule, the GI50 (DU-145) was > 100 µM (inactive), the GI50 (SF-295) was > 100 µM (inactive) and the GI50 (U-251) was > 100 µM (inactive). For the same molecule, the GI50 (HOP-92) was > 100 µM (inactive), the GI50 (RXF 393) was > 100 µM (inactive) and the GI50 (SN12C) was > 100 µM (inactive). The GI50 (HOP-62) was > 100 µM (inactive), the GI50 (UACC-62) was > 100 µM (inactive) and the GI50 (SR) was > 100 µM (inactive). For the same molecule, the GI50 (M14) was > 100 µM (inactive) and the GI50 (ACHN) was > 100 µM (inactive).
For C/C(=N/NC(=S)Nc1cccc(Cl)c1)c1cccc(/C(C)=N\NC(=S)Nc2cccc(Cl)c2)n1, the GI50 (NCI-H460) was 2.01 µM (inactive), the GI50 (SW-620) was 3.25 µM (inactive) and the GI50 (MOLT-4) was 2.69 µM (inactive). For the same molecule, the GI50 (SK-MEL-5) was 2.03 µM (inactive), the GI50 (Hs-578T) was > 23.8 µM (inactive) and the GI50 (K562) was 2.62 µM (inactive). The GI50 (IGROV-1) was 2.03 µM (inactive), the GI50 (CCRF-CEM) was 1.28 µM (inactive) and the GI50 (OVCAR-3) was 0.379 µM (active). For the same molecule, the GI50 (OVCAR-4) was 5.14 µM (inactive), the GI50 (HCT-116) was 2.4 µM (inactive) and the GI50 (MDA-N) was 20.2 µM (inactive). The GI50 (UACC-257) was 4.66 µM (inactive), the GI50 (T47D) was 3.48 µM (inactive) and the GI50 (NCI-H23) was 3.69 µM (inactive). The GI50 (HL-60) was 1.22 µM (inactive), the GI50 (SK-OV-3) was 4.22 µM (inactive) and the GI50 (OVCAR-8) was 0.902 µM (active). For the same molecule, the GI50 (TK-10) was 2.02 µM (inactive), the GI50 (SK-MEL-2) was 3.73 µM (inactive) and the GI50 (BT-549) was 0.94 µM (active). The GI50 (NCI-H522) was 3.03 µM (inactive), the GI50 (786-0) was 0.893 µM (active) and the GI50 (MDA-MB-231) was 2.69 µM (inactive). The GI50 (SK-MEL-28) was > 100 µM (inactive), the GI50 (NCI/ADR-RES) was 1.09 µM (active) and the GI50 (KM12) was 3.52 µM (inactive). For the same molecule, the GI50 (OVCAR-5) was 6.43 µM (inactive), the GI50 (SNB-19) was 19.4 µM (inactive) and the GI50 (RPMI-8226) was 3.05 µM (inactive). For the same molecule, the GI50 (SF-539) was 0.597 µM (active), the GI50 (CAKI-1) was 2.86 µM (inactive) and the GI50 (UO-31) was 1.67 µM (inactive). For the same molecule, the GI50 (MDA-MB-435) was 6.87 µM (inactive), the GI50 (HT-29) was 2.27 µM (inactive) and the GI50 (A549) was 2.96 µM (inactive). The GI50 (Malme-3M) was 1.43 µM (inactive), the GI50 (HCC 2998) was 6.85 µM (inactive) and the GI50 (EKVX) was 3.44 µM (inactive). The GI50 (SNB-75) was 2.58 µM (inactive), the GI50 (A498) was 4.85 µM (inactive) and the GI50 (COLO 205) was 1.35 µM (inactive). The GI50 (MCF7) was 1.99 µM (inactive), the GI50 (LOX IMVI) was 1.84 µM (inactive) and the GI50 (HCT-15) was 2.49 µM. The GI50 (PC-3) was 3.46 µM (inactive), the GI50 (SF-295) was 1.77 µM (inactive) and the GI50 (U-251) was 3.13 µM (inactive). The GI50 (HOP-92) was 3.65 µM (inactive), the GI50 (RXF 393) was 2.38 µM (inactive) and the GI50 (SN12C) was 3.48 µM (inactive). For the same molecule, the GI50 (HOP-62) was 1.15 µM (inactive), the GI50 (NCI-H226) was 0.998 µM (active) and the GI50 (UACC-62) was 2.1 µM (inactive). For the same molecule, the GI50 (SR) was 0.828 µM (active), the GI50 (M14) was 1.62 µM (inactive) and the GI50 (ACHN) was 0.813 µM (active).
In the case of COC1=CC(=O)C2=C(C1=O)[C@H]1CC[C@]3(C)[C@@H](OC(C)=O)CC[C@H]3[C@@H]1CC2, the GI50 (NCI-H460) is reported as 71 µM (inactive), the GI50 (SW-620) is reported as > 100 µM (inactive) and the GI50 (MOLT-4) is reported as 20.2 µM (inactive). The GI50 (SK-MEL-5) was 21.4 µM (inactive), the GI50 (Hs-578T) was 38.3 µM (inactive) and the GI50 (K562) was 44.4 µM (inactive). For the same molecule, the GI50 (IGROV-1) was 25.2 µM (inactive), the GI50 (CCRF-CEM) was 25.4 µM (inactive) and the GI50 (OVCAR-3) was > 100 µM (inactive). For the same molecule, the GI50 (OVCAR-4) was 16.5 µM (inactive), the GI50 (HCT-116) was 29.3 µM (inactive) and the GI50 (MDA-N) was 28.6 µM (inactive). For the same molecule, the GI50 (UACC-257) was 27.1 µM (inactive), the GI50 (T47D) was 23.2 µM (inactive) and the GI50 (NCI-H23) was 40.3 µM (inactive). The GI50 (HL-60) was 16.4 µM (inactive), the GI50 (SK-OV-3) was > 100 µM (inactive) and the GI50 (OVCAR-8) was 23.9 µM (inactive). The GI50 (TK-10) was > 100 µM (inactive), the GI50 (SK-MEL-2) was 37.5 µM (inactive) and the GI50 (BT-549) was > 100 µM (inactive). For the same molecule, the GI50 (NCI-H522) was > 100 µM (inactive), the GI50 (786-0) was 55.6 µM (inactive) and the GI50 (MDA-MB-231) was 17 µM (inactive). The GI50 (SK-MEL-28) was > 100 µM (inactive), the GI50 (NCI/ADR-RES) was 32.7 µM (inactive) and the GI50 (KM12) was 60.3 µM (inactive). For the same molecule, the GI50 (OVCAR-5) was 37.8 µM (inactive), the GI50 (SNB-19) was > 100 µM (inactive) and the GI50 (RPMI-8226) was 31 µM (inactive). For the same molecule, the GI50 (SF-539) was 75.3 µM (inactive), the GI50 (CAKI-1) was 49 µM (inactive) and the GI50 (SF-268) was 42.1 µM (inactive). For the same molecule, the GI50 (UO-31) was > 100 µM (inactive), the GI50 (MDA-MB-435) was 19.2 µM (inactive) and the GI50 (HT-29) was 20.8 µM (inactive). The GI50 (A549) was > 100 µM (inactive), the GI50 (Malme-3M) was 30.3 µM (inactive) and the GI50 (EKVX) was 13.6 µM (inactive). The GI50 (SNB-75) was > 100 µM (inactive), the GI50 (A498) was > 100 µM (inactive) and the GI50 (COLO 205) was 44.2 µM (inactive). The GI50 (LOX IMVI) was 15.1 µM (inactive), the GI50 (HCT-15) was 49.5 µM and the GI50 (PC-3) was 39.9 µM (inactive). The GI50 (DU-145) was 67.8 µM (inactive), the GI50 (SF-295) was 92.3 µM (inactive) and the GI50 (U-251) was 30.3 µM (inactive). The GI50 (HOP-92) was 7.93 µM (inactive), the GI50 (RXF 393) was 61.2 µM (inactive) and the GI50 (SN12C) was 95.9 µM (inactive). For the same molecule, the GI50 (HOP-62) was > 100 µM (inactive), the GI50 (NCI-H226) was 75.2 µM (inactive) and the GI50 (SR) was 37.4 µM (inactive). The GI50 (M14) was > 100 µM (inactive) and the GI50 (ACHN) was 35.1 µM (inactive).
